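1) Cells in 96-well plates. 2) Compound, 48 h, 5 concentrations. 3) Linear interpolation between surrounding doses. 4) Unreached endpoint = highest concentration. Abbreviation: GI50, concentration required for 50% inhibition of growth. TGI is the concentration that stops growth completely.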
How the values were obtained:
Test in all cases: growth of human tumour cells (NCI), 48 h
KM12 colon = tested on: KM12 colon
OVCAR-4 ovarian = tested on: OVCAR-4 ovarian
HL-60(TB) leukemia = tested on: HL-60(TB) leukemia
A549 NSCLC = tested on: A549 NSCLC
CAKI-1 renal = tested on: CAKI-1 renal
A498 renal = tested on: A498 renal
HT29 colon = tested on: HT29 colon
SN12C renal = tested on: SN12C renal
BT-549 breast = tested on: BT-549 breast
EKVX NSCLC = tested on: EKVX NSCLC
MCF7 breast = tested on: MCF7 breast
SK-MEL-28 melanoma = tested on: SK-MEL-28 melanoma
OVCAR-3 ovarian = tested on: OVCAR-3 ovarian
OVCAR-5 ovarian = tested on: OVCAR-5 ovarian
SF-295 CNS = tested on: SF-295 CNS
SK-MEL-2 melanoma = tested on: SK-MEL-2 melanoma
HS 578T breast = tested on: HS 578T breast
SW-620 colon = tested on: SW-620 colon
TK-10 renal = tested on: TK-10 renal
SNB-75 CNS = tested on: SNB-75 CNS
SK-OV-3 ovarian = tested on: SK-OV-3 ovarian
DU-145 prostate = tested on: DU-145 prostate
SF-539 CNS = tested on: SF-539 CNS
RXF 393 renal = tested on: RXF 393 renal
786-0 renal = tested on: 786-0 renal
UO-31 renal = tested on: UO-31 renal
UACC-62 melanoma = tested on: UACC-62 melanoma
MDA-MB-231 breast = tested on: MDA-MB-231 breast
SNB-19 CNS = tested on: SNB-19 CNS
NCI-H460 lung = tested on: NCI-H460 lung
UACC-257 melanoma = tested on: UACC-257 melanoma
NCI-H226 lung = tested on: NCI-H226 lung
RPMI-8226 leukemia = tested on: RPMI-8226 leukemia
SK-MEL-5 melanoma = tested on: SK-MEL-5 melanoma
OVCAR-8 ovarian = tested on: OVCAR-8 ovarian
PC-3 prostate = tested on: PC-3 prostate
SF-268 CNS = tested on: SF-268 CNS
MDA-MB-435 = tested on: MDA-MB-435
MALME-3M melanoma = tested on: MALME-3M melanoma
HCT-15 colon = tested on: HCT-15 colon
IGROV1 ovarian = tested on: IGROV1 ovarian
HOP-62 NSCLC = tested on: HOP-62 NSCLC
COLO 205 colon = tested on: COLO 205 colon
ACHN renal = tested on: ACHN renal
HOP-92 NSCLC = tested on: HOP-92 NSCLC
HCC-2998 colon = tested on: HCC-2998 colon
NCI-H522 lung = tested on: NCI-H522 lung
U251 CNS = tested on: U251 CNS
LOX IMVI melanoma = tested on: LOX IMVI melanoma
T-47D breast = tested on: T-47D breast
HCT-116 colon = tested on: HCT-116 colon
NCI-H23 lung = tested on: NCI-H23 lung

## CCOC(=O)c1c(NC(=O)c2ccc(C(F)(F)F)cc2)sc2c3c(ccc12)OCN(C)C3
KM12 colon
  GI50: 2010 nM
  TGI: 3770 nM
OVCAR-4 ovarian
  GI50: 1760 nM
  TGI: 3460 nM
HL-60(TB) leukemia
  GI50: 1690 nM
  TGI: 4740 nM
A549 NSCLC
  GI50: 1790 nM
  TGI: 3610 nM
CAKI-1 renal
  GI50: 1670 nM
  TGI: 3200 nM
A498 renal
  GI50: 1670 nM
  TGI: 3210 nM
HT29 colon
  GI50: 1750 nM
  TGI: 3340 nM
SN12C renal
  GI50: 1790 nM
  TGI: 3430 nM
BT-549 breast
  GI50: > 100000 nM
  TGI: > 100000 nM
EKVX NSCLC
  GI50: 1690 nM
  TGI: 3360 nM
MCF7 breast
  GI50: 1620 nM
  TGI: 3080 nM
SK-MEL-28 melanoma
  GI50: 1800 nM
  TGI: 3280 nM
OVCAR-3 ovarian
  GI50: 1790 nM
  TGI: 3330 nM
OVCAR-5 ovarian
  GI50: 1800 nM
  TGI: 3400 nM
SF-295 CNS
  GI50: 1790 nM
  TGI: 3320 nM
SK-MEL-2 melanoma
  GI50: 1800 nM
  TGI: 3440 nM
HS 578T breast
  GI50: 1840 nM
  TGI: 3970 nM
SW-620 colon
  GI50: 1780 nM
  TGI: 3420 nM
TK-10 renal
  GI50: 1680 nM
  TGI: 3130 nM
SNB-75 CNS
  GI50: 1490 nM
  TGI: 3340 nM
SK-OV-3 ovarian
  GI50: 1950 nM
  TGI: 3770 nM
DU-145 prostate
  GI50: 1810 nM
  TGI: 3410 nM
SF-539 CNS
  GI50: 1750 nM
  TGI: 3300 nM
RXF 393 renal
  GI50: 1560 nM
  TGI: 2970 nM
786-0 renal
  GI50: 2220 nM
  TGI: 4920 nM
UO-31 renal
  GI50: 1550 nM
  TGI: 2950 nM
UACC-62 melanoma
  GI50: 1720 nM
  TGI: 3280 nM
MDA-MB-231 breast
  GI50: 1860 nM
  TGI: 3700 nM
SNB-19 CNS
  GI50: 1780 nM
  TGI: 3520 nM
NCI-H460 lung
  GI50: 1890 nM
  TGI: 3550 nM
UACC-257 melanoma
  GI50: 1620 nM
  TGI: 3270 nM
NCI-H226 lung
  GI50: 1790 nM
  TGI: 3600 nM
RPMI-8226 leukemia
  GI50: 1330 nM
  TGI: 3860 nM
SK-MEL-5 melanoma
  GI50: 1810 nM
  TGI: 3450 nM
OVCAR-8 ovarian
  GI50: 1860 nM
  TGI: 3760 nM
PC-3 prostate
  GI50: 1530 nM
  TGI: 3150 nM
SF-268 CNS
  GI50: 1830 nM
  TGI: 3660 nM
MDA-MB-435
  GI50: 1650 nM
  TGI: 3160 nM
MALME-3M melanoma
  GI50: 1830 nM
  TGI: 3510 nM
HCT-15 colon
  GI50: 1740 nM
  TGI: 3280 nM
IGROV1 ovarian
  GI50: 1810 nM
  TGI: 3520 nM
HOP-62 NSCLC
  GI50: 2000 nM
  TGI: 4320 nM
COLO 205 colon
  GI50: 1780 nM
  TGI: 3500 nM
ACHN renal
  GI50: 1800 nM
  TGI: 3240 nM
HOP-92 NSCLC
  GI50: 1140 nM
  TGI: 2680 nM
HCC-2998 colon
  GI50: 1670 nM
  TGI: 3150 nM
NCI-H522 lung
  GI50: 1720 nM
  TGI: 3350 nM
U251 CNS
  GI50: 1710 nM
  TGI: 3340 nM
LOX IMVI melanoma
  GI50: 1650 nM
  TGI: 3210 nM
T-47D breast
  GI50: 1840 nM
  TGI: 3960 nM
HCT-116 colon
  GI50: 1740 nM
  TGI: 3340 nM
NCI-H23 lung
  GI50: 1810 nM
  TGI: 3500 nM
